Read-outs that look alike come from different tables or passages of the source.
System: C. elegans
Test: microbe, parasite or virus in culture
Details: Caenorhabditis elegans
[1] = 0 h, read-out: Percentage of motility inhibition 0 h, Table S2, C. elegans SS assay, 110 μM, 0 h, averages of 4 data points
[2] = 24 h, read-out: Percentage of motility inhibition 24 h, Table S2, C. elegans SS assay, 110 μM, 24 h, averages of 4 data points
[3] = 0 h, read-out: Percentage of motility inhibition 0 h
[4] = 24 h, read-out: Percentage of motility inhibition 24 h

## Cc1c(C)[n+](Cc2ccccc2)cn1Cc1ccccc1 [Lepidiline A]
[1]
  inhibition at 110 µM: 5%
[2]
  inhibition at 110 µM: 14%

## CCc1nn(CCO)c(CC)c1Oc1cc(C#N)cc(C#N)c1 [Lersivirine]
[1]
  inhibition at 110 µM: 18%
[2]
  inhibition at 110 µM: 8%

## COc1cccc(N2CCN(C3=Nc4c(F)cccc4[C@H](CC(=O)O)N3c3cc(C(F)(F)F)ccc3OC)CC2)c1 [Letermovir]
[1]
  inhibition at 110 µM: 24%
[2]
  inhibition at 110 µM: 0%

## N#Cc1ccc(C(c2ccc(C#N)cc2)n2cncn2)cc1 [Letrozole]
[1]
  inhibition at 110 µM: 0%
[2]
  inhibition at 110 µM: 0%

## C[C@H]1COc2c(N3CCN(C)CC3)c(F)cc3c(=O)c(C(=O)O)cn1c23 [Levofloxacin]
[1]
  inhibition at 110 µM: 9%
[2]
  inhibition at 110 µM: 10%

## COc1c(/C=C/C(=O)c2ccc(O)c(CC=C(C)C)c2)ccc(O)c1O [Licochal cone D]
[1]
  inhibition at 110 µM: 15%
[2]
  inhibition at 110 µM: 0%

## C=C(C)[C@H](C)c1cc(/C=C/C(=O)c2ccc(O)cc2)c(OC)cc1O [Licochal cone E]
[1]
  inhibition at 110 µM: 5%
[2]
  inhibition at 110 µM: 0%

## Cc1nc(C)c(C)nc1C [Ligustrazine]
[1]
  inhibition at 110 µM: 0%
[2]
  inhibition at 110 µM: 2%

## C=CC(C)(O)CCC=C(C)C (stereo not shown) [Linalool]
[3]
  inhibition at 110 µM: 14%
[4]
  inhibition at 110 µM: 20%

## C/C1=C\CCC2=C[C@@H](OC2=O)c2c(C)coc2C1 [Linderalactone]
[1]
  inhibition at 110 µM: 0%
[2]
  inhibition at 110 µM: 45%

## C/C1=C\CC[C@]23O[C@H]2[C@@H](OC3=O)c2c(C)coc2C1 [Linderane]
[1]
  inhibition at 110 µM: 5%
[2]
  inhibition at 110 µM: 16%

## O=C1C[C@@H](c2ccc(O[C@@H]3O[C@H](CO)[C@@H](O)[C@H](O)[C@H]3O)cc2)Oc2cc(O)ccc21 [Liquiriti n]
[1]
  inhibition at 110 µM: 45%
[2]
  inhibition at 110 µM: 14%

## C[C@@H]1[C@H]2[C@H](O[C@@H]3O[C@H](CO)[C@@H](O)[C@H](O)[C@H]3O)OC=C(C(=O)O)[C@H]2C[C@@H]1O [Loganic acid]
[1]
  inhibition at 110 µM: 28%
[2]
  inhibition at 110 µM: 29%

## COC(=O)C1=CO[C@@H](O[C@@H]2O[C@H](CO)[C@@H](O)[C@H](O)[C@H]2O)[C@@H]2[C@@H](C)[C@@H](O)C[C@H]12 [Loganin]
[1]
  inhibition at 110 µM: 11%
[2]
  inhibition at 110 µM: 15%

## C[C@@H]1O[C@@H](O[C@H]2[C@H](Oc3cc(O)c4c(=O)cc(-c5ccc(O)c(O)c5)oc4c3)O[C@H](CO)[C@@H](O)[C@@H]2O)[C@H](O)[C@H](O)[C@H]1O [Lonicerin]
[1]
  inhibition at 110 µM: 2%
[2]
  inhibition at 110 µM: 2%

## Cc1cccc(C)c1OCC(=O)N[C@@H](Cc1ccccc1)[C@@H](O)C[C@H](Cc1ccccc1)NC(=O)[C@H](C(C)C)N1CCCNC1=O [Lopinavir]
[1]
  inhibition at 110 µM: 17%
[2]
  inhibition at 110 µM: 14%

## N#C/C(=C1/SC[C@@H](c2ccc(Cl)cc2Cl)S1)n1ccnc1 [Luliconazole]
[1]
  inhibition at 110 µM: 3%
[2]
  inhibition at 110 µM: 7%

## CCCCN(CCCC)CC(O)c1cc(Cl)cc2c1-c1ccc(Cl)cc1/C2=C/c1ccc(Cl)cc1 (stereo not shown) [Lumefantrine]
[1]
  inhibition at 110 µM: 0%
[2]
  inhibition at 110 µM: 0%

## C=C(C)[C@@H]1CC[C@]2(C)CC[C@]3(C)[C@H](CC[C@@H]4[C@@]5(C)CCC(=O)C(C)(C)[C@@H]5CC[C@]43C)[C@@H]12 [Lupenone]
[1]
  inhibition at 110 µM: 25%
[2]
  inhibition at 110 µM: 17%

## C=C(C)[C@@H]1CC[C@]2(C)CC[C@]3(C)[C@H](CC[C@@H]4[C@@]5(C)CC[C@H](O)C(C)(C)[C@@H]5CC[C@]43C)[C@@H]12 [Lupeol]
[1]
  inhibition at 110 µM: 0%
[2]
  inhibition at 110 µM: 0%

## CC1=C[C@H](O)CC(C)(C)[C@H]1/C=C/C(C)=C/C=C/C(C)=C/C=C/C=C(C)/C=C/C=C(C)/C=C/C1=C(C)C[C@@H](O)CC1(C)C [Lutein]
[3]
  inhibition at 110 µM: 13%
[4]
  inhibition at 110 µM: 0%

## O=c1cc(-c2ccc(O)c(O)c2)oc2cc(O)cc(O)c12 [Luteolin]
[1]
  inhibition at 110 µM: 4%
[2]
  inhibition at 110 µM: 0%

## COc1ccc2c3c1O[C@H]1C[C@@H](O)CC[C@]31CCN(C)C2 [Lycoramine]
[1]
  inhibition at 110 µM: 0%
[2]
  inhibition at 110 µM: 0%
